Measured values as given in patent publication US8933015B2, “Macrocyclic inhibitors of flaviviridae viruses” (Gilead Sciences, Inc., priority 2010, dated 2015).

Columns and labels:
[1] = from C=C/C=C\[C@H](OC)[C@H](C)[C@@H](OC)[C@@H](C)C(=O)N[C@@H](Cc1ccc(OC)cc1)C(=O)N[C@@H](Cc1cccc(O[Si](C)(C)C(C)(C)C)c1)C(=O)N1CCC[C@@H](C(=O)OCCC=C)N1; rcm bond; 22-membered ring; Grubbs I; DCM; 2.52 mM; 40.0 °C; 24.0 h
cyclophilin A = cyclophilin A (Homo sapiens, UniProt P62937); test: Cyclophilin A TR-FRET competitive binding assay; conditions: inhibition of cyclophilin binding; 5 nM CypA, 150 nM CsA-Cy5
Sequence of cyclophilin A (P62937 whole entry, species assumed): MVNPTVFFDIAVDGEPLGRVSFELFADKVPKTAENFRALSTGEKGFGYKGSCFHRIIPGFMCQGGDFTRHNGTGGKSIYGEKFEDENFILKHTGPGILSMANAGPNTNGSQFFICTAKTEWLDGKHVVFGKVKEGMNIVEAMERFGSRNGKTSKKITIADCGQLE
Experimental: Cyclophilin A TR-FRET Competitive Binding Assay
Inhibitor potency was measured using a competitive binding assay with a time-resolved fluorescence resonance energy transfer (TR-FRET) readout. […] The total volume of the assay solution was 100 μL. […] An IC50 value was calculated using a four-parameter logistic fit.

[2] = test system: human hepatoma Huh-7 cell line harboring a HCV replicon; test: HCV replicon assay (inhibition of viral replication, luciferase); assay type: cell-based; conditions: Hepatitis C virus; for EC50: Huh-7, 72 h; for inhibition at 1 µM: Huh-7, read-out: % inhibition at 1 μM
Experimental: The anti-HCV activity of the compounds of this invention was tested in a human hepatoma Huh-7 cell line harboring a HCV replicon. The assay comprised the following steps:
Step 1: Compound Preparation and Serial Dilution
Serial dilution was performed in 100% DMSO in a 384-well plate. A solution containing a compound at 225-fold concentration of the starting final serial dilution concentration was prepared in 100% DMSO and 15 uL added to the pre-specified wells in column 3 or 13 of a polypropylene 384-well plate. The rest of the 384-well plate was filled with 10 uL 100% DMSO except for columns 23 and 24, where 10 uL of 500 uM a HCV protease inhibitor (ITMN-191) in 100% DMSO was added. […] The plate was then placed on a Biomek FX Workstation to start the serial dilution. The serial dilution was performed for ten cycles of 3-fold dilution from column 3 to 12 or from column 13 to 22.
Step 2: Cell Culture Plate Preparation and Compound Addition
To each well of a black polypropylene 384-well plate, 90 μL of cell media containing 1600 suspended Huh-7 HCV replicon cells was added with a Biotek uFlow Workstation. A volume of 0.4 μL of the compound solution was transferred from the serial dilution plate to the cell culture plate on a Biomek FX Workstation. The DMSO concentration in the final assay condition was 0.44%. The plates were incubated for 3 days at 37° C. with 5% CO2 and 85% humidity.
Step 3: Detection of Cytotoxicity and Inhibition of Viral Replication
b) Assessment of inhibition of viral replication: The calcein-PBS solution in the 384-well cell culture plate was aspirated with a Biotek EL405 plate-washer. A volume of 20 μL of Dual-Glo luciferase buffer (Promega, Dual-Glo Luciferase Assay Reagent, cat. #E298B) was added to each well of the plate with a Biotek uFlow Workstation. The plate was incubated for 10 minutes at room temperature. A volume of 20 μL of a solution containing 1:100 mixture of Dual-Glo Stop & Glo substrate (Promega, Dual-Glo Luciferase Assay Reagent, cat. #E313B) and Dual-Glo Stop & Glo buffer (Promega, Dual-Glo Luciferase Assay Reagent, cat. #E314B) was then added to each well of the plate with a Biotek uFlow Workstation. The plate was incubated at room temperature for 10 minutes before the luminescence signal was measured with a Perkin Elmer Envision Plate Reader.
The percent cytotoxicity was determined by calcein AM conversion to fluorescent product. The average fluorescent signal from the DMSO control wells were defined as 100% nontoxic. The individual fluorescent signal from testing compound treated well was divided by the average signal from DMSO control wells and then multiplied by 100% to get the percent viability. The percent anti-HCV replication activity was determined by the luminescence signal from the testing well compared to DMSO controls wells. The background signal was determined by the average luminescence signal from the HCV protease inhibitor treated wells and was subtracted from the signal from the testing wells as well as the DMSO control wells.
Where b is Hill's coefficient. See, for reference, Hill, A. V., The Possible Effects of the Aggregation of the Molecules of Hemoglobin on its Dissociation Curves, J. Physiol. 40: iv-vii. (1910).
% inhibition values at a specific concentration, for example 2 μM, can also be derived from the formula above.
The EC50's are presented as a % inhibition.

| SMILES | ring closure, isolated yield [1] [%] | IC50 (cyclophilin A) [nM] | EC50 [2] [nM] | inhibition at 1 µM [2] [%] |
| --- | --- | --- | --- | --- |
| COc1ccc(C[C@@H]2NC(=O)[C@H](C)[C@H](OC)[C@@H](C)[C@@H](OC)C=CC=CCCOC(=O)[C@@H]3CCCN(N3)C(=O)[C@H](Cc3cccc(O[Si](C)(C)C(C)(C)C)c3)NC2=O)cc1 | 34 | – | – | – |
| CC(C)[C@@H]1NC(=O)[C@H](C)[C@H](O)c2ccc(cc2)CCCCOC(=O)[C@@H]2CCCN(N2)C(=O)[C@H](Cc2cccc(O)c2)NC1=O [Compound 9, (8S,14S,17S,20R,21S)-21-Hydroxy-14-(3-hydroxy-benzyl)-17-isopropyl-20-methyl-6-oxa-12,15,18,27-tetraaza-tricyclo[20.2.2.1*8,12*]heptacosa-1(25),22(26),23-triene-7,13,16,19-tetraone] | – | 1000 to 10000 | 10100 to 100000 | 4 |
| CO[C@@H]1[C@@H](C)[C@@H](OC)/C=C/C=C/C[C@@H](C)OC(=O)[C@@H]2CCCN(N2)C(=O)[C@H](Cc2cccc(O)c2)NC(=O)[C@H](C(C)C)NC(=O)[C@@H]1C [Compound 12, (13E,15E)-(3S,6S,9R,10R,11S,12S,18R,21S)-3-(3-Hydroxy-benzyl)-6-isopropyl-10,12-dimethoxy-9,11,18-trimethyl-19-oxa-1,4,7,25-tetraaza-bicyclo[19.3.1]pentacosa-13,15-diene-2,5,8,20-tetraone] | – | < 100 | < 1000 | 82 |
| CO[C@@H]1CC/C=C/c2cccc(c2)[C@@H](C)NC(=O)[C@@H]2CCCN(N2)C(=O)[C@H](Cc2cccc(O)c2)NC(=O)[C@H](C(C)C)NC(=O)[C@@H]1C [Compound 16, (E)-(2R,5S,11S,14S,17R,18R)-11-(3-Hydroxy-benzyl)-14-isopropyl-18-methoxy-2,17-dimethyl-3,9,12,15,28-pentaaza-tricyclo[21.3.1.1*5,9*]octacosa-1(27),21,23,25-tetraene-4,10,13,16-tetraone] | – | < 100 | < 1000 | 75 |
| CO[C@@H]1CC/C=C/c2ccnc(c2)COC(=O)[C@@H]2CCCN(N2)C(=O)[C@H](Cc2cccc(O)c2)NC(=O)[C@H](C(C)C)NC(=O)[C@@H]1C [Compound 17, (E)-(1S,14R,15R,18S,21S)-21-(3-Hydroxy-benzyl)-18-isopropyl-14-methoxy-15-methyl-3-oxa-6,17,20,23,27-pentaaza-tricyclo[21.3.1.1*5,9*]octacosa-5,7,9(28),10-tetraene-2,16,19,22-tetraone] | – | < 100 | < 1000 | 56 |
| CO[C@@H]1CC/C=C/c2cc(ccn2)COC(=O)[C@@H]2CCCN(N2)C(=O)[C@H](Cc2cccc(O)c2)NC(=O)[C@H](C(C)C)NC(=O)[C@@H]1C [Compound 18, (E)-(1S,14R,15R,18S,21S)-21-(3-Hydroxy-benzyl)-18-isopropyl-14-methoxy-15-methyl-3-oxa-8,17,20,23,27-pentaaza-tricyclo[21.3.1.1*5,9*]octacosa-,7,9(28),10-tetraene-2,16,19,22-tetraone] | – | < 100 | < 1000 | 54 |
| CO[C@@H]1CC/C=C/c2ccc3c(c2)[C@@H](CC3)OC(=O)[C@@H]2CCCN(N2)C(=O)[C@H](Cc2cccc(O)c2)NC(=O)[C@H](C(C)C)NC(=O)[C@@H]1C [Compound 19] | – | < 100 | < 1000 | 70 |
| CO[C@@H]1CCCCc2cccc(c2)[C@@H](C)OC(=O)[C@@H]2CCCN(N2)C(=O)[C@H](Cc2cccc(O)c2)NC(=O)[C@H](C(C)C)NC(=O)[C@@H]1C [Compound 20, (2R,5S,11S,14S,17R,18R)-11-(3-Hydroxy-benzyl)-14-isopropyl-18-methoxy-2,17-dimethyl-3-oxa-9,12,15,28-tetraaza-tricyclo[21.3.1.1*5,9*]octacosa-1(27),23,25-triene-4,10,13,16-tetraone] | – | < 100 | < 1000 | 92 |
| COc1ccc(C[C@@H]2NC(=O)[C@H](C)[C@H](OC)[C@@H](C)[C@@H](OC)/C=C/C=C/CCOC(=O)[C@@H]3CCCN(N3)C(=O)[C@H](Cc3cccc(O)c3)NC2=O)cc1 [Compound 21, (13 E,15E)-(3S,6S,9R,10R,11S,12S,21S)-3-(3-Hydroxy-benzyl)-10,12-dimethoxy-6-(4-methoxy-benzyl)-9,11-dimethyl-19-oxa-1,4,7,25-tetraazabicyclo[19.3.1]pentacosa-13,15-diene-2,5,8,20-tetraone] | – | 101 to 1000 | 1100 to 10000 | 18 |
| CO[C@@H]1CC/C=C/c2cccc(c2)[C@@H](C)OC(=O)[C@@H]2CCCN(N2)C(=O)[C@H](Cc2cccc(O)c2)NC(=O)[C@H](C(C)C)NC(=O)C1 [Compound 22, (E)-(2R,5S,11S,14S,18R)-11-(3-Hydroxy-benzyl)-14-isopropyl-18-methoxy-2-methyl-3-oxa-9,12,15,28-tetraaza-tricyclo[21.3.1.1*5,9*]octacosa-1(26),21,23(27),24-tetraene-4,10,13,16-tetraone] | – | < 100 | < 1000 | 70 |
| CO[C@@H]1CC/C=C/CCCCOC(=O)[C@@H]2CCCN(N2)C(=O)[C@H](Cc2cccc(O)c2)NC(=O)[C@H](C(C)C)NC(=O)[C@@H]1C [Compound 23, (E)-(3S,6S,9R,10R,21S)-3-(3-Hydroxy-benzyl)-6-isopropyl-10-methoxy-9-methyl-19-oxa-1,4,7,25-tetraaza-bicyclo[19.3.1]pentacos-13-ene-2,5,8,20-tetraone] | – | 101 to 1000 | < 1000 | 41 |
| CCO[C@@H]1CC/C=C/c2cccc(c2)COC(=O)[C@@H]2CCCN(N2)C(=O)[C@H](Cc2cccc(O)c2)NC(=O)[C@H](C(C)C)NC(=O)[C@@H]1C [Compound 24, (E)-(5S,11S,14S,17R,18R)-18-Ethoxy-11-(3-hydroxy-benzyl)-14-isopropyl-17-methyl-3-oxa-9,12,15,28-tetraaza-tricyclo[21.3.1.1*5,9*]octacosa-1(26),21,23(27),24-tetraene-4,10,13,16-tetraone] | – | < 100 | < 1000 | 65 |
| CO[C@@H]1[C@@H](C)[C@@H](OC)CCc2cccc(c2)CNC(=O)[C@@H]2CCCN(N2)C(=O)[C@H](Cc2cccc(O)c2)NC(=O)[C@H](C(C)C)NC(=O)[C@@H]1C [Compound 25, (5S,11S,14S,17R,18R,19S,20S)-11-(3-Hydroxy-benzyl)-14-isopropyl-18,20-dimethoxy-17,19-dimethyl-3,9,12,15,28-pentaaza-tricyclo[21.3.1.1*5,9*]octacosa-1(27),23,25-triene-4,10,13,16-tetraone] | – | 101 to 1000 | 1100 to 10000 | 34 |
| CO[C@@H]1CC/C=C/C2=CC=C(COC(=O)[C@@H]3CCCN(N3)C(=O)[C@H](Cc3cccc(O)c3)NC(=O)[C@H](C(C)C)NC(=O)[C@@H]1C)S2 [Compound 26, (E)-(1S,13R,14R,17S,20S)-20-(3-Hydroxy-benzyl)-17-isopropyl-13-methoxy-14-methyl-3-oxa-27-thia-16,19,22,26-tetraaza-tricyclo[20.3.1.1*5,8*]heptacosa-5,7,9-triene-2,15,18,21-tetraone] | – | 101 to 1000 | 10100 to 100000 | 9 |
